Experimental data from patent publication US10323022B2, “Pyrrolidinyl urea, pyrrolidinyl thiourea and pyrrolidinyl guanidine compounds as TrkA kinase inhibitors” (Array BioPharma Inc., priority 2011, dated 2019).

Target: TrkA (Homo sapiens (Human), UniProt P04629)
Assay: TrkA Omnia Assay
Assay type: biochemical
Conditions: averaged IC50; 20 nM enzyme, 500 μM ATP, 10 μM peptide substrate
Description: Trk enzymatic selectivity was assessed using Omnia™ Kinase Assay reagents from Invitrogen Corp. Enzyme (TrkA from Invitrogen Corp.) and test compound (various concentrations) were incubated for 10 minutes at ambient temperature in a 384-well white polypropylene plate (Nunc catalog#267462). Omnia Tyr Peptide #4, as well as ATP, were then added to the plate. Final concentrations were as follows: 20 nM enzyme, 500 μM of ATP, 10 μM peptide substrate. The assay buffer consisted of 25 mM MOPS pH 7.5, 0.005% (v/v) Triton X-100 and 5 mM MgCl2. The production of phosphorylated peptide was monitored continuously for 70 minutes using a Molecular Devices FlexStation II^384 microplate reader (excitation=360 nm; emission=485 nm). Initial rates were calculated from the progress curves. IC50 values were calculated from these rates using either a 4 or 5-parameter logistic curve fit.

TrkA, sequence (P04629 33-796): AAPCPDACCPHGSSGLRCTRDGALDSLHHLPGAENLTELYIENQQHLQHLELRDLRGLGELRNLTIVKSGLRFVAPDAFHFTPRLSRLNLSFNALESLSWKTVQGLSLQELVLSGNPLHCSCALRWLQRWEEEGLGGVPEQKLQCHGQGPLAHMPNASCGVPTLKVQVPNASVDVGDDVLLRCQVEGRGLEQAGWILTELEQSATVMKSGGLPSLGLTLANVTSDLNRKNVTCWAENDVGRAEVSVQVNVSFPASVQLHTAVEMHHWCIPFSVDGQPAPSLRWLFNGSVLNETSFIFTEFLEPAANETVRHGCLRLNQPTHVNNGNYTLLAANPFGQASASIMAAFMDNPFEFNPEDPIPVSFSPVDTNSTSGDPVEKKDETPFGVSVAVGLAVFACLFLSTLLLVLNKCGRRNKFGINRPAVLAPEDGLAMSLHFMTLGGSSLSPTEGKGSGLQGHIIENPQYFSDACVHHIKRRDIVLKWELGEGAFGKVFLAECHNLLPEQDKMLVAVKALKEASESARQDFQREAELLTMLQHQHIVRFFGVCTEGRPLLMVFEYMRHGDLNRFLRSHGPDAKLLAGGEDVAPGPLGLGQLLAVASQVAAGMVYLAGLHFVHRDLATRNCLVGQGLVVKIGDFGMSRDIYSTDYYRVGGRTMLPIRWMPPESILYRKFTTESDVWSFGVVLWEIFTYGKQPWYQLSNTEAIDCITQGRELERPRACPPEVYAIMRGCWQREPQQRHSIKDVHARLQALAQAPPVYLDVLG

Row | Compound | IC50
1 | O=C(Nc1c2c(nn1-c1ccccc1)CCC2)N[C@@H]1CN(Cc2ncc[nH]2)C[C@H]1c1ccccc1 (relative stereo) [Example 257, 1-((trans)-1-((1H-imidazol-2-yl)methyl)-4-phenylpyrrolidin-3-yl)-3-(2-phenyl-2,4,5,6-tetrahydrocyclopenta[c]pyrazol-3-yl)urea] | 100 to 1000 nM
2 | COCCN1C[C@@H](NC(=O)Nc2c(C)c(-c3cnn(C)c3)nn2-c2ccccc2)[C@H](c2ccc(F)c(Cl)c2)C1 (relative stereo) [Example 293, 1-(trans-4-(3-chloro-4-fluorophenyl)-1-(2-methoxyethyl)pyrrolidin-3-yl)-3-(1′,4-dimethyl-1-phenyl-1H,1′H-[3,4′-bipyrazol]-5-yl)urea] | < 100 nM
3 | COCCN1C[C@@H](NC(=O)Nc2c(C)c(-c3cnn(C)c3)nn2-c2ccccc2)[C@H](c2ccc(Cl)c(F)c2)C1 (relative stereo) [Example 294, 1-(trans-4-(4-chloro-3-fluorophenyl)-1-(2-methoxyethyl)pyrrolidin-3-yl)-3-(1′,4-dimethyl-1-phenyl-1H,1′H-[3,4′-bipyrazol]-5-yl)urea] | < 100 nM
4 | COCCN1C[C@@H](NC(=O)Nc2c(C)c(-c3cnn(C)c3)nn2-c2ccccc2)[C@H](c2cc(F)cc(Cl)c2)C1 (relative stereo) [Example 295, 1-(trans-4-(3-chloro-5-fluorophenyl)-1-(2-methoxyethyl)pyrrolidin-3-yl)-3-(1′,4-dimethyl-1-phenyl-1H,1′H-[3,4′-bipyrazol]-5-yl)urea] | < 100 nM
5 | COCCN1C[C@@H](NC(=O)Nc2c(C)c(-c3cnn(C)c3)nn2-c2ccccc2)[C@H](c2cccc(Cl)c2)C1 (relative stereo) [Example 296, 1-(trans-4-(3-chlorophenyl)-1-(2-methoxyethyl)pyrrolidin-3-yl)-3-(1′,4-dimethyl-1-phenyl-1H,1′H-[3,4′-bipyrazol]-5-yl)urea] | < 100 nM
6 | CNC(=O)c1nn(-c2ccccc2)c(NC(=O)N[C@@H]2CN(CCOC)C[C@H]2c2ccc(F)c(Cl)c2)c1C (relative stereo) [Example 301, 5-(3-(trans-4-(3-chloro-4-fluorophenyl)-1-(2-methoxyethyl)pyrrolidin-3-yl)ureido)-N,4-dimethyl-1-phenyl-1H-pyrazole-3-carboxamide] | < 100 nM
7 | CNC(=O)c1nn(-c2ccccc2)c(NC(=O)N[C@@H]2CN(CCOC)C[C@H]2c2ccc(Cl)c(F)c2)c1C (relative stereo) [Example 302, 5-(3-(trans-4-(4-chloro-3-fluorophenyl)-1-(2-methoxyethyl)pyrrolidin-3-yl)ureido)-N,4-dimethyl-1-phenyl-1H-pyrazole-3-carboxamide] | < 100 nM
8 | COCCN1C[C@@H](NC(=O)Nc2c(C)c(-c3ccn(C)c(=O)c3)nn2-c2ccccc2)[C@H](c2ccc(Cl)c(F)c2)C1 (relative stereo) [Example 303, 1-(trans-4-(4-chloro-3-fluorophenyl)-1-(2-methoxyethyl)pyrrolidin-3-yl)-3-(4-methyl-3-(1-methyl-2-oxo-1,2-dihydropyridin-4-yl)-1-phenyl-1H-pyrazol-5-yl)urea] | < 100 nM
9 | COCCN1C[C@@H](NC(=O)Nc2c(C)c(-c3ccn(C)c(=O)c3)nn2-c2ccccc2)[C@H](c2ccc(F)c(Cl)c2)C1 (relative stereo) [Example 304, 1-(trans-4-(3-chloro-4-fluorophenyl)-1-(2-methoxyethyl)pyrrolidin-3-yl)-3-(4-methyl-3-(1-methyl-2-oxo-1,2-dihydropyridin-4-yl)-1-phenyl-1H-pyrazol-5-yl)urea] | < 100 nM
10 | COCCN1C[C@@H](NC(=O)Nc2c(C)c(-c3cnn(C)c3)nn2-c2ccccc2)[C@H](c2cnn(C)c2)C1 (relative stereo) [Example 333, 1-(1′,4-dimethyl-1-phenyl-1H,1'H-[3,4′-bipyrazol]-5-yl)-3-(trans-1-(2-methoxyethyl)-4-(1-methyl-1H-pyrazol-4-yl)pyrrolidin-3-yl)urea] | 100 to 1000 nM
11 | CCOc1nn(-c2ccccc2)c(NC(=O)N[C@@H]2CN(CCOC)C[C@H]2c2cccc(C(F)(F)F)c2)c1C (relative stereo) [Example 335, 1-(3-ethoxy-4-methyl-1-phenyl-1H-pyrazol-5-yl)-3-(trans-1-(2-methoxyethyl)-4-(3-(trifluoromethyl)phenyl)pyrrolidin-3-yl)urea] | < 100 nM
12 | COCCN1C[C@@H](NC(=O)Nc2c(C)c(C)nn2-c2ccccc2)[C@H](c2cncc(Cl)c2)C1 (relative stereo) [Example 343, 1-(trans-4-(5-chloropyridin-3-yl)-1-(2-methoxyethyl)pyrrolidin-3-yl)-3-(3,4-dimethyl-1-phenyl-1H-pyrazol-5-yl)urea] | < 100 nM
13 | COCCN1C[C@@H](NC(=O)Nc2c(C)c(-c3ccccc3)nn2-c2ccccc2)[C@H](c2cncc(F)c2)C1 (relative stereo) [Example 344, 1-(trans-4-(5-fluoropyridin-3-yl)-1-(2-methoxyethyl)pyrrolidin-3-yl)-3-(4-methyl-1,3-diphenyl-1H-pyrazol-5-yl)urea] | < 100 nM
14 | COCCN1C[C@@H](NC(=O)Nc2c(Br)c(-c3ccccc3)nn2-c2ccccc2)[C@H](c2cncc(F)c2)C1 (relative stereo) [Example 435, 1-(4-bromo-1,3-diphenyl-1H-pyrazol-5-yl)-3-(trans-4-(5-fluoropyridin-3-yl)-1-(2-methoxyethyl)pyrrolidin-3-yl)urea] | < 100 nM
15 | COCCN1C[C@@H](NC(=O)Nc2c(Cl)c(-c3ccccc3)nn2-c2ccccc2)[C@H](c2cncc(F)c2)C1 (relative stereo) [Example 436, 1-(4-chloro-1,3-diphenyl-1H-pyrazol-5-yl)-3-(trans-4-(5-fluoropyridin-3-yl)-1-(2-methoxyethyl)pyrrolidin-3-yl)urea] | < 100 nM
16 | COCCN1C[C@@H](NC(=O)Nc2c(C)c(=O)[nH]n2-c2ccccc2)[C@H](c2ccc(Cl)c(F)c2)C1 (relative stereo) [Example 609, 1-((trans)-4-(4-chloro-3-fluorophenyl)-1-(2-methoxyethyl)pyrrolidin-3-yl)-3-(4-methyl-5-oxo-2-phenyl-2,5-dihydro-1H-pyrazol-3-yl)urea] | < 100 nM

Second part, the compound after the results:

Row | IC50 | Compound
17 | 100 to 1000 nM | COc1cccc([C@@H]2CN(CC(F)(F)F)C[C@H]2NC(=O)Nc2c3c(nn2-c2ccccc2)CCC3)c1 (relative stereo) [Example 207, 1-((trans)-4-(3-methoxyphenyl)-1-(2,2,2-trifluoroethyl)pyrrolidin-3-yl)-3-(2-phenyl-2,4,5,6-tetrahydrocyclopenta[c]pyrazol-3-yl)urea]
18 | 100 to 1000 nM | O=C(Nc1c2c(nn1-c1ccccc1)CCC2)N[C@@H]1CN(CC(F)(F)F)C[C@H]1c1cccc(Cl)c1 (relative stereo) [Example 208, 1-((trans)-4-(3-chlorophenyl)-1-(2,2,2-trifluoroethyl)pyrrolidin-3-yl)-3-(2-phenyl-2,4,5,6-tetrahydrocyclopenta[c]pyrazol-3-yl)urea]
19 | 100 to 1000 nM | O=C(Nc1c2c(nn1-c1ccccc1)CCC2)N[C@@H]1CN(CC(F)(F)F)C[C@H]1c1ccccn1 (relative stereo) [Example 209, 1-(2-phenyl-2,4,5,6-tetrahydrocyclopenta[c]pyrazol-3-yl)-3-((trans)-4-(pyridin-2-yl)-1-(2,2,2-trifluoroethyl)pyrrolidin-3-yl)urea]
20 | < 100 nM | O=C(Nc1c2c(nn1-c1ccccc1)CCC2)N[C@@H]1CN(CC(F)(F)F)C[C@H]1c1ccc(F)cc1 (relative stereo) [Example 210, 1-((trans)-4-(4-fluorophenyl)-1-(2,2,2-trifluoroethyl)pyrrolidin-3-yl)-3-(2-phenyl-2,4,5,6-tetrahydrocyclopenta[c]pyrazol-3-yl)urea]
21 | < 100 nM | O=C(Nc1c2c(nn1-c1ccccc1)CCC2)N[C@@H]1CN(CC(F)(F)F)C[C@H]1c1ccc(Cl)cc1 (relative stereo) [Example 211, 1-((trans)-4-(4-chlorophenyl)-1-(2,2,2-trifluoroethyl)pyrrolidin-3-yl)-3-(2-phenyl-2,4,5,6-tetrahydrocyclopenta[c]pyrazol-3-yl)urea]
22 | 1000 to 10000 nM | O=C(Nc1c2c(nn1-c1ccccc1)CCC2)N[C@@H]1CN(CC(F)(F)F)C[C@H]1c1ccccc1Cl (relative stereo) [Example 212, 1-((trans)-4-(2-chlorophenyl)-1-(2,2,2-trifluoroethyl)pyrrolidin-3-yl)-3-(2-phenyl-2,4,5,6-tetrahydrocyclopenta[c]pyrazol-3-yl)urea]
23 | < 100 nM | O=C(Nc1c2c(nn1-c1ccccc1)CCC2)N[C@@H]1CN(CC(F)(F)F)C[C@H]1c1ccccc1F (relative stereo) [Example 214, 1-((trans)-4-(2-fluorophenyl)-1-(2,2,2-trifluoroethyl)pyrrolidin-3-yl)-3-(2-phenyl-2,4,5,6-tetrahydrocyclopenta[c]pyrazol-3-yl)urea]
24 | 100 to 1000 nM | CNCCN1C[C@@H](NC(=O)Nc2c3c(nn2-c2ccccc2)CCC3)[C@H](c2ccc(F)cc2)C1 (relative stereo) [Example 256, 1-((trans)-4-(4-fluorophenyl)-1-(2-(methylamino)ethyl)pyrrolidin-3-yl)-3-(2-phenyl-2,4,5,6-tetrahydrocyclopenta[c]pyrazol-3-yl)urea]
25 | 100 to 1000 nM | COCCN1C[C@@H](NC(=O)Nc2c3c(nn2-c2ccccc2)CCC3)[C@H](c2cncc(F)c2)C1 (relative stereo) [Example 341, 1-(trans-4-(5-fluoropyridin-3-yl)-1-(2-methoxyethyl)pyrrolidin-3-yl)-3-(2-phenyl-2,4,5,6-tetrahydrocyclopenta[c]pyrazol-3-yl)urea]
